Values of other authors as cited in US6436449B2, “Use of a composition” (priority 2000, dated 2002).

Legend:
burn eschars = settings: mice; US 4,543,212
[1] = injected into mice; US 4,543,212
blood platelets = settings: in vitro; US 4,543,212

xeronine
debridement of burn eschars (burn eschars): caused the debridement of burn eschars | anti-inflammatory action [1]: excellent anti-inflammatory agents | aggregation of blood platelets by adenosine diphosphate (blood platelets): inhibited
